# US8192962B2, “Processes for detecting toxic substances” (Daikin Industries, Ltd., priority 2001, dated 2012)
# Tested on: Unknown protein yeast genes
# Experiment: DNA chip mRNA expression in yeast, unknown protein yeast genes (Table 1)
# Type: cell-based, Saccharomyces cerevisiae S288C
# Method in brief: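 Values are treated/untreated fluorescence ratios from a whole-genome yeast DNA chip hybridized over 12 hours at 65° C with Cy3- or Cy5-labelled cDNA from poly(A) mRNA. Log-phase S288C yeast in YPD at 25° C had received a single toxic chemical for two hours, dosed to slow growth without killing.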
compound,measurement,setting,value
"O=[N+]([O-])c1cc[n+]([O-])c2ccccc12 [(5), 4-nitroquinolin-N-oxide]",The level of expressed mRNA in the presence of chemical substance/The level of expressed mRNA in the absence of chemical substance,"yeast gene YAL053W, incubated two hours with chemical substance",0.8
same,The level of expressed mRNA in the presence of chemical substance/The level of expressed mRNA in the absence of chemical substance,yeast gene YAR023C,1.3
same,The level of expressed mRNA in the presence of chemical substance/The level of expressed mRNA in the absence of chemical substance,yeast gene YBL048W,1.3
same,The level of expressed mRNA in the presence of chemical substance/The level of expressed mRNA in the absence of chemical substance,yeast gene YBL107C,1.2
same,The level of expressed mRNA in the presence of chemical substance/The level of expressed mRNA in the absence of chemical substance,"yeast gene YDL072C, incubated two hours with chemical substance",1.4
same,The level of expressed mRNA in the presence of chemical substance/The level of expressed mRNA in the absence of chemical substance,yeast gene YDL086W,1.3
same,The level of expressed mRNA in the presence of chemical substance/The level of expressed mRNA in the absence of chemical substance,yeast gene YDL129W,1.3
same,The level of expressed mRNA in the presence of chemical substance/The level of expressed mRNA in the absence of chemical substance,"yeast gene YDL204W, incubated two hours with chemical substance",1.0
same,The level of expressed mRNA in the presence of chemical substance/The level of expressed mRNA in the absence of chemical substance,"yeast gene YDL222C, incubated two hours with chemical substance",1.0
same,The level of expressed mRNA in the presence of chemical substance/The level of expressed mRNA in the absence of chemical substance,"yeast gene YDR330W, incubated two hours with chemical substance",1.2
same,The level of expressed mRNA in the presence of chemical substance/The level of expressed mRNA in the absence of chemical substance,yeast gene YDR359C,1.3
same,The level of expressed mRNA in the presence of chemical substance/The level of expressed mRNA in the absence of chemical substance,"yeast gene YDR411C, incubated two hours with chemical substance",1.6
same,The level of expressed mRNA in the presence of chemical substance/The level of expressed mRNA in the absence of chemical substance,"yeast gene YDR511W, incubated two hours with chemical substance",1.0
same,The level of expressed mRNA in the presence of chemical substance/The level of expressed mRNA in the absence of chemical substance,yeast gene YDR533C,1.3
same,The level of expressed mRNA in the presence of chemical substance/The level of expressed mRNA in the absence of chemical substance,"yeast gene YDR545W, incubated two hours with chemical substance",1.4
same,The level of expressed mRNA in the presence of chemical substance/The level of expressed mRNA in the absence of chemical substance,"yeast gene YEL001C, incubated two hours with chemical substance",0.9
same,The level of expressed mRNA in the presence of chemical substance/The level of expressed mRNA in the absence of chemical substance,"yeast gene YER004W, incubated two hours with chemical substance",1.5
same,The level of expressed mRNA in the presence of chemical substance/The level of expressed mRNA in the absence of chemical substance,"yeast gene YER035W, incubated two hours with chemical substance",1.5
same,The level of expressed mRNA in the presence of chemical substance/The level of expressed mRNA in the absence of chemical substance,"yeast gene YER079W, incubated two hours with chemical substance",0.8
same,The level of expressed mRNA in the presence of chemical substance/The level of expressed mRNA in the absence of chemical substance,"yeast gene YER106W, incubated two hours with chemical substance",1.6
same,The level of expressed mRNA in the presence of chemical substance/The level of expressed mRNA in the absence of chemical substance,yeast gene YER121W,1.3
same,The level of expressed mRNA in the presence of chemical substance/The level of expressed mRNA in the absence of chemical substance,"yeast gene YER158C, incubated two hours with chemical substance",0.8
same,The level of expressed mRNA in the presence of chemical substance/The level of expressed mRNA in the absence of chemical substance,"yeast gene YER163C, incubated two hours with chemical substance",0.8
same,The level of expressed mRNA in the presence of chemical substance/The level of expressed mRNA in the absence of chemical substance,"yeast gene YER175C, incubated two hours with chemical substance",0.9
same,The level of expressed mRNA in the presence of chemical substance/The level of expressed mRNA in the absence of chemical substance,yeast gene YER189W,1.3
same,The level of expressed mRNA in the presence of chemical substance/The level of expressed mRNA in the absence of chemical substance,"yeast gene YFL006W, incubated two hours with chemical substance",1.4
same,The level of expressed mRNA in the presence of chemical substance/The level of expressed mRNA in the absence of chemical substance,"yeast gene YFL010C, incubated two hours with chemical substance",1.3
same,The level of expressed mRNA in the presence of chemical substance/The level of expressed mRNA in the absence of chemical substance,yeast gene YFL024C,1.1
same,The level of expressed mRNA in the presence of chemical substance/The level of expressed mRNA in the absence of chemical substance,"yeast gene YFL032W, incubated two hours with chemical substance",0.9
same,The level of expressed mRNA in the presence of chemical substance/The level of expressed mRNA in the absence of chemical substance,"yeast gene YGL037C, incubated two hours with chemical substance",0.9
same,The level of expressed mRNA in the presence of chemical substance/The level of expressed mRNA in the absence of chemical substance,"yeast gene YGL047W, incubated two hours with chemical substance",1.3
same,The level of expressed mRNA in the presence of chemical substance/The level of expressed mRNA in the absence of chemical substance,"yeast gene YGL053W, incubated two hours with chemical substance",2.0
same,The level of expressed mRNA in the presence of chemical substance/The level of expressed mRNA in the absence of chemical substance,yeast gene YGL121C,0.9
same,The level of expressed mRNA in the presence of chemical substance/The level of expressed mRNA in the absence of chemical substance,"yeast gene YGL199C, incubated two hours with chemical substance",0.7
same,The level of expressed mRNA in the presence of chemical substance/The level of expressed mRNA in the absence of chemical substance,yeast gene YGR038W,1.3
same,The level of expressed mRNA in the presence of chemical substance/The level of expressed mRNA in the absence of chemical substance,"yeast gene YGR101W, incubated two hours with chemical substance",1.2
same,The level of expressed mRNA in the presence of chemical substance/The level of expressed mRNA in the absence of chemical substance,yeast gene YGR110W,0.9
same,The level of expressed mRNA in the presence of chemical substance/The level of expressed mRNA in the absence of chemical substance,"yeast gene YGR130C, incubated two hours with chemical substance",1.4
same,The level of expressed mRNA in the presence of chemical substance/The level of expressed mRNA in the absence of chemical substance,yeast gene YGR142W,1.3
same,The level of expressed mRNA in the presence of chemical substance/The level of expressed mRNA in the absence of chemical substance,"yeast gene YGR154C, incubated two hours with chemical substance",1.2
same,The level of expressed mRNA in the presence of chemical substance/The level of expressed mRNA in the absence of chemical substance,"yeast gene YGR221C, incubated two hours with chemical substance",0.9
same,The level of expressed mRNA in the presence of chemical substance/The level of expressed mRNA in the absence of chemical substance,"yeast gene YHR138C, incubated two hours with chemical substance",1.5
same,The level of expressed mRNA in the presence of chemical substance/The level of expressed mRNA in the absence of chemical substance,"yeast gene YHR199C, incubated two hours with chemical substance",1.2
same,The level of expressed mRNA in the presence of chemical substance/The level of expressed mRNA in the absence of chemical substance,"yeast gene YIL023C, incubated two hours with chemical substance",1.3
same,The level of expressed mRNA in the presence of chemical substance/The level of expressed mRNA in the absence of chemical substance,"yeast gene YIL041W, incubated two hours with chemical substance",0.5
same,The level of expressed mRNA in the presence of chemical substance/The level of expressed mRNA in the absence of chemical substance,yeast gene YIL057C,1.3
same,The level of expressed mRNA in the presence of chemical substance/The level of expressed mRNA in the absence of chemical substance,"yeast gene YIL087C, incubated two hours with chemical substance",1.4
same,The level of expressed mRNA in the presence of chemical substance/The level of expressed mRNA in the absence of chemical substance,yeast gene YIR041W,1.3
same,The level of expressed mRNA in the presence of chemical substance/The level of expressed mRNA in the absence of chemical substance,"yeast gene YJL057C, incubated two hours with chemical substance",1.5
same,The level of expressed mRNA in the presence of chemical substance/The level of expressed mRNA in the absence of chemical substance,"yeast gene YJL066C, incubated two hours with chemical substance",0.8
same,The level of expressed mRNA in the presence of chemical substance/The level of expressed mRNA in the absence of chemical substance,"yeast gene YJL082W, incubated two hours with chemical substance",1.7
same,The level of expressed mRNA in the presence of chemical substance/The level of expressed mRNA in the absence of chemical substance,yeast gene YJL100W,1.3
same,The level of expressed mRNA in the presence of chemical substance/The level of expressed mRNA in the absence of chemical substance,"yeast gene YJL151C, incubated two hours with chemical substance",1.3
same,The level of expressed mRNA in the presence of chemical substance/The level of expressed mRNA in the absence of chemical substance,"yeast gene YJL152W, incubated two hours with chemical substance",1.6
same,The level of expressed mRNA in the presence of chemical substance/The level of expressed mRNA in the absence of chemical substance,"yeast gene YJL161W, incubated two hours with chemical substance",1.1
same,The level of expressed mRNA in the presence of chemical substance/The level of expressed mRNA in the absence of chemical substance,"yeast gene YJL171C, incubated two hours with chemical substance",1.0
same,The level of expressed mRNA in the presence of chemical substance/The level of expressed mRNA in the absence of chemical substance,"yeast gene YJR008W, incubated two hours with chemical substance",1.4
same,The level of expressed mRNA in the presence of chemical substance/The level of expressed mRNA in the absence of chemical substance,"yeast gene YJR054W, incubated two hours with chemical substance",1.0
